The values that follow come from article PMC5526870, “Fragment optimization for GPCRs by molecular dynamics free energy calculations: Probing druggable subpockets of the A2A adenosine receptor binding site” (Scientific Reports, 2017).

Where “and” joins values, the source holds several entries; their conditions need not be identical. Identical values can stand only once. Like-named read-outs stand apart in the source and are kept apart here.

In assay [1] the target is T1, human A2AAR (Homo sapiens, UniProt P29274).
T1 construct: expressed in transfected cells; host or cells: CHO cells
As to conditions: 95% confidence interval in brackets, cited from earlier work.

The target in the next assay is T2, human A3AR (Homo sapiens, UniProt P0DMS8).
T2 construct: expressed in transfected cells; host or cells: CHO or HEK293 cells (membrane preparations)
T2 sequence (P0DMS8 1-318): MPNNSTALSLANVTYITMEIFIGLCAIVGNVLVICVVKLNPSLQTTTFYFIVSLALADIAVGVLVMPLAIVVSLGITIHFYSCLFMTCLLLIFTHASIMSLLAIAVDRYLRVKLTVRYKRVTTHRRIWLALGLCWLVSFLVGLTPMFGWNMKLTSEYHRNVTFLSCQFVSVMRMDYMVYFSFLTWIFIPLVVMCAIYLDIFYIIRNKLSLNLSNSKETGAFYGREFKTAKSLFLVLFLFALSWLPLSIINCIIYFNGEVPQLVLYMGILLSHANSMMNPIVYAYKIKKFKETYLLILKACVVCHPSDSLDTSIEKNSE
The assay is described as follows: Radioligand binding assay, agonist [125I]AB-MECA (0.2 nM), membranes of CHO or HEK293 cells. The conditions noted are these: for inhibition at 300 µM: read-out: % inhibition at 300 µM A3, 300 µM, mean ± standard error, n=3; for Ki: mean ± standard error, n=3, read-out: Ki A3. The procedure: (§1) Radioligand binding assays for compounds 25–36 were performed as previously described[61] using membrane preparations from Chinese hamster ovary (CHO) or human embryonic kidney (HEK)293 cells stably expressing the human A1, A2A or A3AR. The following radioligands: antagonist [^3H]DPCPX (0.5 nM); antagonist [^3H]ZM241385 (1.0 nM); and agonist [^125I]AB-MECA (0.2 nM) were used for A1, A2A, and A3ARs, respectively. Binding parameters were calculated using Prism 6 software (GraphPAD, San Diego, CA, USA). IC50 values obtained from competition curves were converted to Ki values using the Cheng-Prusoff equation. Data were expressed as mean ± standard error. The radioligand binding assays for compounds 18, 20, 21, and 23 were performed as previously described. Each Ki value was determined from at least three independent experiments.
(§2) Supplementary Table S2. Experimental data for compounds 25-36. Radioligand binding
(§3) assays were performed using membranes of mammalian cells overexpressing one AR subtype.
(§4) aData are expressed as mean ± standard error resulting from three independent experiments.

The next assay addresses T3, human A1AR (Homo sapiens, UniProt P30542).
T3 construct: expressed in transfected cells; host or cells: CHO or HEK293 cells (membrane preparations)
T3 sequence (P30542 1-326): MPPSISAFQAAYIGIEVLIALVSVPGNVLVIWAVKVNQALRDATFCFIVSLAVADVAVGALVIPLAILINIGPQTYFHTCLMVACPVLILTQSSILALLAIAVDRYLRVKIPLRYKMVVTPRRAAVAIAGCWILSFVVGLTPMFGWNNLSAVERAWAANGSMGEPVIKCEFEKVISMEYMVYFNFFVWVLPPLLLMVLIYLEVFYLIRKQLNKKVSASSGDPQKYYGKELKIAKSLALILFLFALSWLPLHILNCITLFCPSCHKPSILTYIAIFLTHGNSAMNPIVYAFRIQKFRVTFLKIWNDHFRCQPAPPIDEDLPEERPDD
Put plainly: Radioligand binding assay, antagonist [3H]DPCPX (0.5 nM), membranes of CHO or HEK293 cells. As to conditions: for inhibition at 300 µM: read-out: % inhibition at 300 µM A1. The procedure: Binding parameters were calculated using Prism 6 software (GraphPAD, San Diego, CA, USA). IC50 values obtained from competition curves were converted to Ki values using the Cheng-Prusoff equation. Data were expressed as mean ± standard error. […] Each Ki value was determined from at least three independent experiments.
Supplementary Table S2. […] Radioligand binding
as §3

In assay [2] the target is T1, human A2AAR. Put plainly: Radioligand binding assay, antagonist [3H]ZM241385 (1.0 nM), membranes of CHO or HEK293 cells, compounds 25-36. As to conditions: for inhibition at 300 µM: read-out: % inhibition at 300 µM A2A (displacement of radioligand binding); for inhibition at 300 µM / Ki: [3H]ZM241385, mean ± standard error, n=3; for Ki: read-out: Ki A2A; for fold increase of affinity compared to compound 32: experimentally determined, A2AAR. As to the method:
as §1, §2, §3, §4

The target of assay [3] is T1, human A2AAR. Put plainly: Functional assay: inhibition of NECA-induced cAMP production (GloSensor) in CHO cells. Type of assay: cell-based. As to conditions: against 1 µM NECA, CHO cells expressing human A2AAR. For orientation: cAMP levels reflect the balance of adenylyl cyclase and phosphodiesterase activity.
Experimental: CHO cells, stably transfected with the human A2AAR and transiently with firefly luciferase biosensor, were grown adherently and maintained in Dulbecco’s Modified Eagles Medium with nutrient mixture F12 (DMEM/F12 with phenol red), supplemented with 10% FBS (Fetal Bovine Serum), 100 U/mL penicillin, 100 µg/mL streptomycin, 2.5µg/mL amphotericin, 1 mM Sodium pyruvate, and 0.1 mg/mL Geneticin (G418) at 37 °C, and aerated with 5% CO2: 95% O2. Cells were harvested in CO2 independent media and counted in a Neobauer chamber. The desiderate cell number was incubated in equilibration medium containing a 3% v/v GloSensor cAMP reagent stock solution, 10% FBS and 87% CO2 independent medium. After 2 hours of incubation cells were dispensed in wells of 384 well plate and when a steady-state basal signal was obtained, different concentrations of antagonists were added. After 10 min, 1 µM of 5′-N-ethylcarboxamidoadenosine (NECA), the reference agonist, was injected. Responses were expressed as percentage of the Maximal Relative Luminescence Units (RLU). Inhibition-response curves were fitted by a non-linear regression using a Prism 4.0 program (GraphPad Software, San Diego, CA, USA).
For assay [4], the target named is T1, human A2AAR. The assay is described as follows: Radioligand binding assay at the A2AAR for adenine derivatives 1-23 (displacement of [3H]NECA, CHO cells). The procedure:
as §1
Supplementary Table S1. Binding data for compounds 1-23. […]
aKi value from Lambertucci et al.1 bKi value from Volpini et al.2 cDisplacement of specific [3H]NECA binding at human A2AAR expressed in CHO cells measured in this work.
Data is expressed as geometric means with 95% confidence limits (n=3-6). […]
For orientation: Displacement assays read how much labelled ligand stays bound in the presence of the test substance.

The mark [5] stands for this setting: [3H]DPCPX, mean ± standard error, n=3.
The mark [6] stands for this setting: [3H]DPCPX, mean ± standard error, n=3, read-out: Ki A1.
The mark [7] stands for this setting: displacement of specific [3H]NECA binding at human A2AAR expressed in CHO cells, measured in this work.

T1 sequence (P29274 whole entry): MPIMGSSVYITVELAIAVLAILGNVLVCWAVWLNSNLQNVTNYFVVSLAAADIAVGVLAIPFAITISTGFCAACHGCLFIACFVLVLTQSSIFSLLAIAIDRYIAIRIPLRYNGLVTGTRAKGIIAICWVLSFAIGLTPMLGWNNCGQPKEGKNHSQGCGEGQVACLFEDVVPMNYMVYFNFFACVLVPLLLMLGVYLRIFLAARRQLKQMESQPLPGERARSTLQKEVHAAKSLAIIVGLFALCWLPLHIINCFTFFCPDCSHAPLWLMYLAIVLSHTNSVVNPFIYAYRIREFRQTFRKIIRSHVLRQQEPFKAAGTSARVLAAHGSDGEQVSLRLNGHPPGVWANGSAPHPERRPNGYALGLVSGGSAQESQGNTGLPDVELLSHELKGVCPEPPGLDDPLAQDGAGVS

The term Ki denotes the dissociation constant of the complex between target and ligand, obtained from inhibition or displacement. For the compound `Nc1ncnc2c1ncn2C1CCCC1` [Compound 15], at human A2AAR [1] (ref Lambertucci et al. [22]), the Ki is 1.8 µM.

In the case of `CC(C)Cn1c(Br)nc2c(N)ncnc21` [Compound 8], the inhibition constant Ki at human A2AAR [1] (ref Lambertucci et al. [22]) was 6 µM.

For `Nc1ncnc2c1ncn2CCO` [Compound 10], the inhibition constant Ki at human A2AAR [1] (ref Lambertucci et al. [22]) was 11 µM.

What is called inhibition is the percentage by which the read-out fell short of the control. `Nc1ncnc2ncnn12` [Compound 25, [1,2,4]triazolo[1,5-a][1,3,5]triazin-7-amine]: the inhibition at 300 µM on human A3AR turned out to be 39 ± 2%; on human A1AR (setting [5]) it was 27 ± 4%; on human A2AAR [2], 34%.

With `CCn1c(Br)nc2c(N)ncnc21` [Compound 5], the “inhibition of A2AAR mediated cAMP production” value against human A2AAR [3] is “close to completely inhibit the agonist effect of 1 µM NECA”. Also, the Ki on human A2AAR [1] (ref Lambertucci et al. [22]) is 0.052 µM.

Consider `CCn1cnc2c(N)ncnc21` [Compound 9], for which, on human A2AAR [1] (ref Lambertucci et al. [22]), the Ki is 2.2 µM.

Turning to `CCn1c(OC(C)C)nc2c(N)ncnc21` [Compound 23], at human A2AAR [3], the “inhibition of A2AAR mediated cAMP production” value is listed as “close to completely inhibit the agonist effect of 1 µM NECA”. In addition, the Ki at human A2AAR [1] (ref Volpini et al. [23]) was greater than 100 µM; at human A2AAR [4] (compound retested in a radioligand binding assay at the A2AAR, this work), 0.095 µM. Also, at human A2AAR [4] (from published affinity of 23), the “fold loss of binding affinity relative to compound 21” value is reported as greater than 1000 fold.

As for `COc1cccc2sc(NC(C)=O)nc12` [Compound 36], the Ki at human A3AR was determined as 1 ± 0.2 µM; on human A1AR (setting [6]), 7.8 ± 0.5 µM; on human A2AAR [2] it was 1.8 ± 0.05 µM. The “experimental increase of affinity compared to compound 32, as free energy” value on human A2AAR [2] (corresponding to the 44-fold increase) was determined as 2.3 kcal/mol. Further, the “fold increase of affinity compared to compound 32” value (from here on “fold increase of affinity”) at human A2AAR [2] is on record as 44 fold.

As for `CCn1c(C)nc2c(N)ncnc21` [Compound 18], at human A2AAR [4] (C8-methyl substituent), the “fold increase of binding affinity compared to compound 9” value is reported as 10 fold. The Ki on human A2AAR [4] (setting [7]) came to 0.218 ± 0.061 µM.

In the case of `Cn1c(Br)nc2c(N)ncnc21` [Compound 3], the “experimental improvement in binding free energy, compound 3 versus compound 2” value at human A2AAR [4] (C8-bromine addition) was 2.4 kcal/mol. Further, at human A2AAR [4] (C8-bromine versus unsubstituted compound 2), the “fold increase in affinity compared to compound 2” value turned out to be 58 fold. The “experimental improvement of binding affinity, compound 3 versus compound 4” value at human A2AAR [4] (addition of N9-methyl group) amounted to 2.0 kcal/mol.

Turning to `CC(=O)Nc1nc2ccccc2s1` [Compound 32, N-(benzo[d]thiazol-2-yl)acetamide], the inhibition constant (Ki) was 0.81 ± 0.17 µM at human A3AR; 11.2 ± 2.4 µM at human A1AR (setting [6]); 79.1 µM and 79 µM at human A2AAR [2].

`CC(=O)Nc1nc2c(C)cccc2s1` [Compound 33]: the inhibition constant Ki worked out at 2.3 ± 0.5 µM on human A3AR, 17 ± 1.2 µM on human A1AR (setting [6]) and 10.7 ± 2.3 µM at human A2AAR [2]. Also, on human A2AAR [2], the “fold increase of affinity” value worked out at 7 fold.

`C=CCCn1cnc2c(N)ncnc21` [Compound 17]: on human A2AAR [1] (ref Lambertucci et al. [22]), the Ki is 8.5 µM.

For the compound `CC(C)c1nc2c(N)cccn2n1` [Compound 31], the values for the Ki on human A3AR, on human A1AR and on human A2AAR [2] were 102 ± 32 µM, 50.1 ± 22.6 µM and 223 µM, respectively.

`CCCn1c(Br)nc2c(N)ncnc21` [Compound 7]: the inhibitory constant (Ki) on human A2AAR [1] (ref Lambertucci et al. [22]) was 0.3 µM.

In the case of `Cc1nc2ncnc(N)n2n1` [Compound 26], the inhibition at 300 µM came out at 50 ± 4% at human A3AR and 44 ± 4% on human A1AR (setting [5]). At human A2AAR [2], the inhibition constant Ki came to 78.5 µM.

Regarding `CC(=O)Nc1nc2ccc(C)cc2s1` [Compound 35], the inhibition constant Ki at human A3AR came to 2.9 ± 0.4 µM; on human A1AR (setting [6]), 17.8 ± 1.7 µM; at human A2AAR [2] it was 48.6 ± 2.6 µM. The “fold increase of affinity” value on human A2AAR [2] is recorded as “two-fold increase of affinity”.

Take `Nc1ncnc2c1ncn2CCCO` [Compound 12]: the inhibition constant (Ki) on human A2AAR [1] (ref Lambertucci et al. [22]) is 3.9 µM.

As to `Nc1ncnc2c1nc(Br)n2CCO` [Compound 6], at human A2AAR [1] (ref Lambertucci et al. [22]), the Ki is 0.62 µM.

`CCOc1nc2c(N)ncnc2n1CC` [Compound 22]: the “inhibition of A2AAR mediated cAMP production” value at human A2AAR [3] is on record as “close to completely inhibit the agonist effect of 1 µM NECA”. In addition, the Ki at human A2AAR [1] (ref Volpini et al. [23]) was 0.046 µM.

As to `Nc1cccn2ncnc12` [Compound 28, [1,2,4]triazolo[1,5-a]pyridin-8-amine], the Ki on human A3AR is 153 ± 31 µM. Further, the inhibition at 300 µM on human A1AR (setting [5]) worked out at 22 ± 6%; on human A2AAR [2] it was 17%.

On human A2AAR [4] (setting [7]), `CCn1c(O)nc2c(N)ncnc21` [Compound 20] gave an inhibition constant Ki of 1.14 ± 0.29 µM.

Regarding `CC(=O)Nc1nc2cc(C)ccc2s1` [Compound 34], the Ki at human A3AR is 1.1 ± 0.2 µM; at human A1AR (setting [6]), 8.4 ± 0.9 µM; on human A2AAR [2] it was 11.6 ± 1.2 µM. Also, at human A2AAR [2], the “fold increase of affinity” value was 7 fold.

Regarding `CSc1nc2ncnc(N)n2n1` [Compound 27], the Ki on human A3AR is 119 ± 42 µM; on human A1AR it was 97.3 ± 3.5 µM; on human A2AAR [2] it was 20 µM.

As for `Nc1ncnc2c1nc(Br)n2C1CCCC1` [Compound 14], the Ki on human A2AAR [1] (ref Lambertucci et al. [22]) is 1.9 µM.

On to `Cn1cnc2ncnc(N)c21` [Compound 1], for which, on human A2AAR [1] (ref Lambertucci et al. [22]), the Ki was greater than 100 µM.

With `CC(C)Cn1cnc2c(N)ncnc21` [Compound 11], the Ki at human A2AAR [1] (ref Lambertucci et al. [22]) is greater than 100 µM.

Turning to `CCCn1cnc2c(N)ncnc21` [Compound 13], the Ki on human A2AAR [1] (ref Lambertucci et al. [22]) was 9.6 µM.

`CCc1nc2c(N)cccn2n1` [Compound 30]: the Ki was found to be 110 ± 17 µM at human A3AR and 97.2 ± 22.5 µM at human A1AR. Also, the inhibition at 300 µM at human A2AAR [2] was found to be 49%.

With `Cc1nc2c(N)cccn2n1` [Compound 29], the inhibition at 300 µM at human A3AR was found to be 44 ± 4%; on human A1AR (setting [5]), 38 ± 6%; at human A2AAR [2], 31%.
